Results as given in ChEMBL document CHEMBL4002640, “Discovery of MK-1832, a Kv1.5 inhibitor with improved selectivity and pharmacokinetics” (Bioorg Med Chem Lett, 2017).
One block for each compound: values may come before it.

Assays:
[1] = biological target: T1, Potassium voltage-gated channel subfamily A member 5 (Homo sapiens, UniProt P22460); test: Inhibition of Kv1.5 (unknown origin)
[2] = biological target: KCNQ1/KCNE1 (IKs) (Homo sapiens, UniProt P15382+P51787); test: Inhibition of human KCNQ1/KCNE1 expressed in HEK293 cells assessed as reduction in slowly activating delayed rectifier cardiac potassium current at 10 uM by patch clamp electrophysiology method; format: cell-based; settings: HEK293 cells expressing human KCNQ1/KCNE1
[3] = biological target: T2, Voltage-gated inwardly rectifying potassium channel KCNH2 (Homo sapiens, UniProt Q12809); test: Displacement of [3H]-MK499 from human ERG IKr channel expressed in HEK293 cell membranes
[4] = Metabolic stability in human hepatocytes up to 3 hrs by mass spectrometry; format: ADME, cell-based, Hepatocyte
[5] = organism: Homo sapiens; test: Substrate activity at human P-gp assessed as efflux ratio
[6] = Drug metabolism in human hepatocytes assessed as oxidation of the A/B ring nitrogens up to 3 hrs by mass spectrometry; format: ADME, cell-based, Hepatocyte
[7] = Drug metabolism in human hepatocytes assessed as oxidation of the ethane at the center up to 3 hrs by mass spectrometry; format: ADME, cell-based, Hepatocyte
[8] = biological target: T1, Potassium voltage-gated channel subfamily A member 5; test: Inhibition of Kv1.5 mediated ultra-rapid delayed rectifier current Ikur in human atrial myocytes by voltage-patch clamp electrophysiology method; format: cell-based
[9] = tested on: Canis familiaris; test: Selectivity index, ratio of compound effect for anti-atrial fibrillation activity in iv dosed anesthetized Mongrel dog assessed as increase in atrial refractory period to compound effect on ventricular refractory period in iv dosed anesthetized Mongrel dog; set-up: species or system Canis lupus familiaris
[10] = biological target: Sodium channel protein type 5 subunit alpha (Homo sapiens, UniProt Q14524); test: Inhibition of SCN5a (unknown origin) assessed as reduction in sodium current at 10 uM by voltage/ion probe reader method
[11] = Selectivity index, ratio of IC50 for human KCNQ1/KCNE1 IKs channel expressed in HEK293 cells to IC50 for Kv1.5 IKur channel in human atrial myocytes
[12] = tested on: Canis familiaris; test: Anti-atrial fibrillation activity in iv dosed anesthetized Mongrel dog assessed as increase in atrial refractory period at 400 ms of basic cycle length administered as 60 mins infusion measured up to 60 mins by electrophysiology method; format: functional, Canis lupus familiaris
[13] = biological target: T2, Voltage-gated inwardly rectifying potassium channel KCNH2; test: Inhibition of human ERG expressed in CHOK1 cells assessed as reduction in rapidly activating delayed rectifier cardiac potassium current by whole-cell voltage-patch clamp assay; format: cell-based
[14] = biological target: T3, A-type voltage-gated potassium channel KCND3 (Homo sapiens, UniProt Q9UK17); test: Inhibition of Kv4.3 (unknown origin) assessed as reduction in transient outward potassium current by high throughput clamp method
T3 sequence (Q9UK17 whole entry): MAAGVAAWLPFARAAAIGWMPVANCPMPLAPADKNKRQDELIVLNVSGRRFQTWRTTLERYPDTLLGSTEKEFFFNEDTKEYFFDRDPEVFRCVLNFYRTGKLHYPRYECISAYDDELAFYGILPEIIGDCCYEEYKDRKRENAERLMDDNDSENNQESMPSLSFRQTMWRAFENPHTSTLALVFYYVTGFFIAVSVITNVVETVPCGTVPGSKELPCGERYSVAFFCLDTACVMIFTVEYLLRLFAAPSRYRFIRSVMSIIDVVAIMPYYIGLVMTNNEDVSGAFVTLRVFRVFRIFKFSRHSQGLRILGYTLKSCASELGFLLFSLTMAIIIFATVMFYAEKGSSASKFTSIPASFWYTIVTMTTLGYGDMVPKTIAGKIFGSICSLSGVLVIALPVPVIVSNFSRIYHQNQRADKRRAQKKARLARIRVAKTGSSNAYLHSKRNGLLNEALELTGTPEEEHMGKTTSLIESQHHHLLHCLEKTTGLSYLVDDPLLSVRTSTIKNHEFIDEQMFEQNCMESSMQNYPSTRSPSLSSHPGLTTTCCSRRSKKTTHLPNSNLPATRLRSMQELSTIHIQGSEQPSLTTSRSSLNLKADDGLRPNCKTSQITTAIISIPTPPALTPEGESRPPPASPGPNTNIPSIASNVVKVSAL

[15] = tested on: Canis familiaris; test: Effect on ventricular refractory period in iv dosed anesthetized Mongrel dog assessed as threshold change in ventricular refractory period at 400 ms of basic cycle length administered as 60 mins infusion measured up to 60 mins by electrophysiology method; format: ADME, organism-based, Canis lupus familiaris; settings: in vivo, 1 h
[16] = biological target: Voltage-gated potassium channel, IKs; KCNQ1(Kv7.1)/KCNE1(MinK) (Homo sapiens, UniProt P15382+P51787); test: Inhibition of human KCNQ1/KCNE1 expressed in HEK293 cells assessed as reduction in slowly activating delayed rectifier cardiac potassium current by patch clamp electrophysiology method; format: cell-based
Chain of Voltage-gated potassium channel, IKs; KCNQ1(Kv7.1)/KCNE1(MinK) (P51787 whole entry): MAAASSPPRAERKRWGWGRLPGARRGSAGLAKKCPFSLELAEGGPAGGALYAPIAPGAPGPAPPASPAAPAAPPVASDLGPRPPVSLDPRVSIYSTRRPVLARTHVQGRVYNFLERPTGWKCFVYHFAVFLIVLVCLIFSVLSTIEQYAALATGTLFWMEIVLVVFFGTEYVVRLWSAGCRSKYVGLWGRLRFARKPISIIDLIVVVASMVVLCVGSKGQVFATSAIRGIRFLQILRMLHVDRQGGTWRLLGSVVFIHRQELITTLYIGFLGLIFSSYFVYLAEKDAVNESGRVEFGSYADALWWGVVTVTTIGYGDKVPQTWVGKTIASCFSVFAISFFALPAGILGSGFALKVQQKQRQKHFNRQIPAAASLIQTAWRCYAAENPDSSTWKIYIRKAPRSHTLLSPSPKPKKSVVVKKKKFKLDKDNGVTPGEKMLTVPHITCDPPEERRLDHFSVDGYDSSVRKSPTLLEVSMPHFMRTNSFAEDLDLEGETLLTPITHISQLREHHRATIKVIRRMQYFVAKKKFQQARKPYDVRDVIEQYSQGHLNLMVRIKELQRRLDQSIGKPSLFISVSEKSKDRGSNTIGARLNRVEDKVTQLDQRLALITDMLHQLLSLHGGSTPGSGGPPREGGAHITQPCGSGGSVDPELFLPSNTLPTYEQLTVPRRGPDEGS

T2 sequence (Q12809 whole entry): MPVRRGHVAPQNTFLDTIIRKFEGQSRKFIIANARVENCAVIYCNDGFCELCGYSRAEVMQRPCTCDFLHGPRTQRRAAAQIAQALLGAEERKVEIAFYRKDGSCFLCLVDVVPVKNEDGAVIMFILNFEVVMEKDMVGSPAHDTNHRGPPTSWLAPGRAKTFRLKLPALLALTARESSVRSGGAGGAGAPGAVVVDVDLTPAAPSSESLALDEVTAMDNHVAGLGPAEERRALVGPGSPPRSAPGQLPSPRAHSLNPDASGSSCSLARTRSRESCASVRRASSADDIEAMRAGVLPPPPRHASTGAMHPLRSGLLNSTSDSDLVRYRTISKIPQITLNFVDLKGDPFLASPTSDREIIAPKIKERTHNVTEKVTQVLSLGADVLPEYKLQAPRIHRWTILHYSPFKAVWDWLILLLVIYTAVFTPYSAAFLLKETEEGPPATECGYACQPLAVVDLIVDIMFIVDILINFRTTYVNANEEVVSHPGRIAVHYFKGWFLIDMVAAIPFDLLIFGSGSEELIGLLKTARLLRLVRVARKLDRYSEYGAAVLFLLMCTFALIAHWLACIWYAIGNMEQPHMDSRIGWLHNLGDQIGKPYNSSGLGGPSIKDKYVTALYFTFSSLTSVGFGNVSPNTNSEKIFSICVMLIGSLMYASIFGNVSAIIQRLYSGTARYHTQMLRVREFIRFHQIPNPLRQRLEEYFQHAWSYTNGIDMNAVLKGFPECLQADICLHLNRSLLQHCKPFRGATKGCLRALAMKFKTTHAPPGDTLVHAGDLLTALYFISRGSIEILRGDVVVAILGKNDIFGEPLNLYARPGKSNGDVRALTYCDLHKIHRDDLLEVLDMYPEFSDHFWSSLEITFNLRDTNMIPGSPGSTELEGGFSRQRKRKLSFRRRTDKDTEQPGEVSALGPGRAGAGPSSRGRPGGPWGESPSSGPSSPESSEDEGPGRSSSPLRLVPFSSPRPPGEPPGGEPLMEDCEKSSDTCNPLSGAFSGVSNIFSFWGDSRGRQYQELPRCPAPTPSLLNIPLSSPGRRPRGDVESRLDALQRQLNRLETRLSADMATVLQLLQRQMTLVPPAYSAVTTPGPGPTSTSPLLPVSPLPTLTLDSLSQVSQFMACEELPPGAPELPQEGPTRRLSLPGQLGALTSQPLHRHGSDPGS
Chain of KCNQ1/KCNE1 (IKs) (P51787 whole entry): as the sequence (P51787 whole entry) above
T1 sequence (P22460 whole entry): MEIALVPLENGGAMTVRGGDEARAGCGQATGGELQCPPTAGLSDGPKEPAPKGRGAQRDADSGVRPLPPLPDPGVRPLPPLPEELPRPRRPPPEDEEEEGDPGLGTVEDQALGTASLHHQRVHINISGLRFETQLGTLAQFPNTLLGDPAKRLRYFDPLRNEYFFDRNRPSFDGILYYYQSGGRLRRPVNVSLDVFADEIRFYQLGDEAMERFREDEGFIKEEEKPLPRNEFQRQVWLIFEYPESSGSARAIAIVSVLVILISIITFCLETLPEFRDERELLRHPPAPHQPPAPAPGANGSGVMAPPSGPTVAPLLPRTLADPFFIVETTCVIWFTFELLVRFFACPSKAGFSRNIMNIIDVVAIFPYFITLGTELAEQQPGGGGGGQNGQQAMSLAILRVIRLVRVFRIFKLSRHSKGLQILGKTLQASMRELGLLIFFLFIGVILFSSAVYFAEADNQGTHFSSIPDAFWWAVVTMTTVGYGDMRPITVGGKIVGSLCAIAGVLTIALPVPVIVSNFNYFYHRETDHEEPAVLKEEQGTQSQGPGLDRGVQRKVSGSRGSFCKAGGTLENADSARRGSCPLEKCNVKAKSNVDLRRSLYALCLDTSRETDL

SMILES: c1cncc(C(Cc2ccccc2-c2cncc3ccccc23)c2cccnc2)c1
IC50 [1]: 133 nM
inhibition at 10 µM [2]: 77%
IC50 [3]: 12000 nM

SMILES: CN(C)C(=O)c1cccc(-c2ncccc2CC(c2ccnc(N)n2)c2cccnc2F)c1 (racemic)
IC50 [1]: 161 nM
inhibition at 10 µM [2]: 61%
IC50 [3]: > 30000 nM

SMILES: OC(Cc1cccnc1-c1cccc(C(F)(F)F)c1)(c1cccnc1F)c1cccnc1F
IC50 [1]: 195 nM
Stability [4]: Stable
inhibition at 10 µM [2]: 16%

SMILES: OC(Cc1cccnc1-c1cc(Cl)cc(Cl)c1)(c1cccnc1)c1cccnc1
IC50 [1]: 84 nM
inhibition at 10 µM [2]: 10%
Ratio [5]: 6.8
IC50 [3]: > 30000 nM

SMILES: CC(=O)NC(c1ccccc1-c1cc(Cl)cc(Cl)c1)C(c1cccnc1)c1cccnc1 (stereo unspecified)
IC50 [1]: 148 nM
inhibition at 10 µM [2]: 0.1%
Ratio [5]: 51
IC50 [3]: > 30000 nM

SMILES: Fc1ccc(CC(c2cccnc2)c2cccnc2)c(C2CC2)c1
IC50 [1]: > 10000 nM

SMILES: CN(C)C(=O)c1cccc(-c2ccc(F)cc2CC(c2cccnc2)c2cccnc2)c1
Drug metabolism [6]: Metabolite_Detected
Stability [4]: Unstable
Drug metabolism [7]: Metabolite_Detected

SMILES: CS(=O)(=O)Nc1cccc(-c2cc(F)ccc2CC(c2cccnc2)c2cccnc2)c1
IC50 [1]: 579 nM
inhibition at 10 µM [2]: 42%

SMILES: OC(c1cccnc1-c1ccccc1Cl)C(c1cccnc1)c1cccnc1 (stereo unspecified)
inhibition at 10 µM [2]: -0.5%
Ratio [5]: 28
IC50 [3]: > 30000 nM

SMILES: OC(c1cccnc1-c1cc(Cl)cc(Cl)c1)C(c1cccnc1)c1ccccn1 (mixture of isomers)
IC50 [1]: 233 nM
Ratio [5]: 1.1
IC50 [3]: > 30000 nM

SMILES: OC(c1cccnc1-c1cccc(Cl)c1)C(c1cccnc1)c1cccnc1 (racemic)
IC50 [1]: 283 nM
inhibition at 10 µM [2]: 4.1%
IC50 [3]: > 30000 nM

SMILES: Cc1cc(F)ccc1-c1ccccc1C(C#N)C(c1cccnc1)c1cccnc1 (stereo unspecified)
IC50 [1]: 137 nM
inhibition at 10 µM [2]: 9.2%

SMILES: Nc1cccc(C(c2cccnc2)C(O)c2cccnc2-c2cc(Cl)cc(Cl)c2)n1 (mixture of isomers)
IC50 [1]: 153 nM
inhibition at 10 µM [2]: 20%
Ratio [5]: 3.4
IC50 [3]: > 30000 nM

SMILES: c1ccc(-c2ccccc2CC(c2cccnc2)c2cccnc2)cc1
IC50 [1]: 1390 nM
IC50 [3]: 7620 nM

SMILES: OC(c1cccnc1-c1cccc(Cl)c1Cl)C(c1cccnc1)c1cccnc1 (racemic)
IC50 [1]: 110 nM
inhibition at 10 µM [2]: -3.3%
Ratio [5]: 17

SMILES: FC(F)(F)Oc1cccc(-c2ncccc2CC(c2cccnc2)c2cccnc2)c1
IC50 [1]: 33 nM
inhibition at 10 µM [2]: 67%
IC50 [3]: 12700 nM

SMILES: c1cncc(C(Cc2ccccc2-c2ccncc2)c2cccnc2)c1
IC50 [1]: 444 nM
IC50 [3]: 22100 nM

SMILES: c1cncc(-c2ccccc2CC(c2cccnc2)c2cccnc2)c1
IC50 [1]: 64 nM
inhibition at 10 µM [2]: 22%

SMILES: CN(C)C(=O)c1cccc(-c2ccccc2CC(c2cccnc2)c2cccnc2)c1
IC50 [1]: 64 nM
inhibition at 10 µM [2]: 26%

SMILES: O[C@@H](c1cccnc1-c1cccc(C(F)(F)F)c1)C(c1cccnc1)c1cccnc1
IC50 [1]: 290 nM
inhibition at 10 µM [2]: -14%
Ratio [5]: 7
IC50 [3]: > 30000 nM

SMILES: Fc1ccc(CC(c2cccnc2)c2cccnc2)c(-c2cn[nH]c2)c1
IC50 [1]: > 10000 nM

SMILES: Nc1cccc(C(Cc2cccnc2-c2cccc(C(F)(F)F)c2)c2cccnc2)n1 (stereo unspecified)
IC50 [1]: 56 nM
inhibition at 10 µM [2]: 42%

SMILES: CN(c1cccnc1)c1ncccc1CC(c1cccnc1)c1cccnc1
IC50 [1]: 90 nM
inhibition at 10 µM [2]: 5%
IC50 [3]: > 30000 nM

Continued by falling IC50 [1], values first:

IC50 [1]: 2860 nM
SMILES: N#Cc1cccc(-c2cccc(Cl)c2CC(c2cccnc2)c2cccnc2)c1
IC50 [3]: 2560 nM

IC50 [1]: 1590 nM
SMILES: CS(=O)(=O)Nc1cccc(-c2cc(F)ccc2CC(c2cccnc2)c2cccnc2)n1

IC50 [1]: 1280 nM
SMILES: Fc1ccc(CC(c2cccnc2)c2cccnc2)c(-c2cccc(C(F)(F)F)c2)c1
IC50 [3]: 2230 nM

IC50 [1]: 276 nM
inhibition at 10 µM [2]: 16%
SMILES: OC(c1cccnc1-c1cccc(Cl)c1)C(c1cccnc1)c1ncco1 (mixture of isomers)

IC50 [1]: 136 nM
inhibition at 10 µM [2]: 47%
Ratio [5]: 0.9
SMILES: N#Cc1cccc(-c2cc(F)ccc2CC(c2cccnc2)c2cccnc2)c1
IC50 [3]: 10200 nM

IC50 [1]: 84 nM
inhibition at 10 µM [2]: 23%
SMILES: FC(F)(F)c1cccc(-c2ncccc2CC(c2cccnc2)c2cccnc2)c1
IC50 [3]: > 30000 nM

IC50 [1]: 62 nM
inhibition at 10 µM [2]: 57%
SMILES: Nc1cccc(C(Cc2cccnc2-c2cc(Cl)cc(Cl)c2)c2cccnc2)n1 (stereo unspecified)
IC50 [3]: 10200 nM

IC50 [1]: 41 nM
inhibition at 10 µM [2]: 15%
SMILES: COc1cccc(-c2ncccc2CC(c2cccnc2)c2cccnc2)c1

IC50 [1]: 30 nM
inhibition at 10 µM [2]: 36%
SMILES: Clc1cccc(-c2ncccc2CC(c2cccnc2)c2cccnc2)c1
IC50 [3]: > 30000 nM

IC50 [1]: 26 nM
inhibition at 10 µM [2]: 80%
SMILES: Clc1ccccc1-c1ncccc1CC(c1cccnc1)c1cccnc1Cl (stereo unspecified)

IC50 [1]: 23 nM
inhibition at 10 µM [2]: 24%
SMILES: Clc1ccccc1-c1ncccc1CC(c1cccnc1)c1cccnc1
IC50 [3]: > 30000 nM

IC50 [8]: 11 nM
IC50 [1]: 9 nM
Stability [4]: Stable
IC50 [14]: 2300 nM
Activity [15]: 6 to 7 µM
IC50 [16]: 790 nM
SMILES: CS(=O)(=O)Nc1cccc([C@H](c2ccc(F)cc2)C(c2cccnc2)c2cccnc2)n1
Selectivity Index [9]: 210
inhibition (INH) [10]: Not Active
Ratio IC50 [11]: 70
EC10 [12]: 31 nM
IC50 [13]: 110000 nM
IC50 [3]: > 30000 nM
